Reference: patent US20060234327A1, “Methods for identifying enzyme inhibitors and protein kinases” (priority 2003, published 2006)
One block for each compound: values may come before it.

Tests used:
[1] = test system: proteins in HeLa cell lysate; assay: Profiling kinases from complex proteome with biotin-FSBA, Western blot; assay type: binding
[2] = target: T1, ALK5 (Homo sapiens, UniProt P36897); assay: FSBA covalent modification and protection by competitors, followed by LC/MS; assay type: binding; conditions: for Mass Peak (relative percentage), FSBA-modified ALK5 peak: peak 35,405 Da; for Mass Peak (relative percentage), unmodified ALK5 peak: peak 34,972 Da
T1 construct: recombinantly expressed and purified kinase domain of the transforming growth factor (TGF)-β type I receptor; made in house; host or cells: baculovirus expression system
T1 sequence (P36897 205-495 limits assumed): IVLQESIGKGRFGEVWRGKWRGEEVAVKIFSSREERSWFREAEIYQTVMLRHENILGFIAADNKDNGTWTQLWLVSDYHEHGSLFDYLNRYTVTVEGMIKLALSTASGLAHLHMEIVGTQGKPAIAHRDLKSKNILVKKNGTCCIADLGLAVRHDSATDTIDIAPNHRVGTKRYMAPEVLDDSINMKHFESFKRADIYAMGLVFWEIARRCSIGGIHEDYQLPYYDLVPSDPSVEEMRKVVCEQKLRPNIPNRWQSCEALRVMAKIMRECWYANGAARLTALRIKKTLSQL

[3] = target: T2, ALK4 (Homo sapiens, UniProt P36896); assay: as above; assay type: binding; conditions: for Mass Peak (relative percentage), unmodified ALK4 peak: peak 35,025 Da; for Mass Peak (relative percentage), FSBA-modified ALK4 peak: peak 35,459 Da
T2 sequence (P36896 24-505): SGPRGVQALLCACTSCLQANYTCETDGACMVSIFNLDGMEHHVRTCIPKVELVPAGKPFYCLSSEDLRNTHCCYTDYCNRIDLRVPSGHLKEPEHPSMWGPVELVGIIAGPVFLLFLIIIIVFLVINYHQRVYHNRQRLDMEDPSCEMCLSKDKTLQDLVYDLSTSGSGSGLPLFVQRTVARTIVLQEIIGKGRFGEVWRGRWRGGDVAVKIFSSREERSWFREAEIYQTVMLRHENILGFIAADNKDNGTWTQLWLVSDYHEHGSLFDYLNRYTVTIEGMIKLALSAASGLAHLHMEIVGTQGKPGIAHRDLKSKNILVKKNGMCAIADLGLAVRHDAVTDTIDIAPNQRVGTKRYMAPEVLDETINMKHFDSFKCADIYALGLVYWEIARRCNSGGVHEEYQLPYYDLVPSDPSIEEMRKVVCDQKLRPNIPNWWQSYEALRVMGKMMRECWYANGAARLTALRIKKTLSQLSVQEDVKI

[4] = test system: human ROCK1 (hROCK1)
[5] = target: T3, ALK5 (kinase domain of the TGF-β type I receptor) (Homo sapiens, UniProt P36897); assay: ^14C-FSBA affinity labeling detected by autoradiography; assay type: binding; conditions: ˜20 μM ^14C-FSBA, 1 hour
T3 construct: recombinantly expressed and purified kinase domain of the transforming growth factor (TGF)-β type I receptor; made in house; host or cells: baculovirus expression system
T3 sequence (P36897 205-495 limits assumed): T1 sequence (P36897 205-495 limits assumed)

[6] = target: T1, ALK5; assay: Biotin-FSBA binding and competition detected by Western blot (avidin-HRP); conditions: biotin-FSBA 20 μM
[7] = target: CDK2 (Homo sapiens, UniProt P24941); assay: FSBA covalent modification and protection by competitors, followed by LC/MS; assay type: binding; conditions: for Mass Peak (relative percentage), unmodified CDK2 peak: peak 33,971 Da; for Mass Peak (relative percentage), FSBA-modified CDK2 peak: peak 34,404 Da

SMILES: CN[C@@H]1C[C@H]2O[C@@](C)([C@@H]1OC)n1c3ccccc3c3c4c(c5c6ccccc6n2c5c31)C(=O)NC4 [staurosporine]
Effect on biotin-FSBA band intensity in HeLa cell lysate ([1]; 80 μg lysate, 500 μM staurosporin 2 hours, then biotin-FSBA 20 μM 4 hours, Western blot (Example 12)): reduced intensity in selective bands | Effect on biotin-FSBA band intensity in HeLa cell lysate ([1]; staurosporin 500 μM 2 hours, then biotin-FSBA 4 hours, Western blot (Example 11)): dramatic decrease in band intensity for selected bands | Effect of staurosporine on FSBA binding to ALK5 [2]: essentially blocked | Effect of staurosporine on FSBA binding to ALK4 [3]: essentially blocked

SMILES: C[C@@H](N)[C@H]1CC[C@H](C(=O)Nc2ccncc2)CC1 [Y-27632]
Effect on FSBA binding to ALK5 ([2]; 5 μg ALK5, FSBA 40 μM, about 2 hours, LC/MS): had no effect on FSBA binding to ALK5 | Effect on FSBA labeling of ALK5 ([2]; 10 μg ALK5, 10 μM FSBA, 3 hours at room temperature, LC/MS): did not inhibit FSBA labeling of ALK5 | Effect on FSBA labeling of ROCK1 [4]: abrogated FSBA labeling of ROCK1 | Inhibition of FSBA labeling of hROCK1 [4]: inhibits hROCK1 at a 1:1 ratio | Mode of action on hROCK1 [4]: competitive inhibitor of hROCK1

Effect of ATP on ^14C-FSBA labeling of ALK5 by autoradiography ([5]; 1 mM ATP): most of the labeling was blocked | ATP concentration at which biotin-FSBA/ALK5 bands were no longer visible [6]: ≥ 1.0 mM | Mass Peak (relative percentage), FSBA-modified ALK5 peak ([2]; FSBA 10 μM plus ATP 50 μM): 35,405 Da (100%) | Mass Peak (relative percentage), unmodified ALK5 peak ([2]; FSBA 10 μM plus ATP 100 μM): 34,972 Da (30%) | Mass Peak (relative percentage), FSBA-modified ALK5 peak ([2]; FSBA 10 μM plus ATP 100 μM): 35,405 Da (70%), | Mass Peak (relative percentage), unmodified ALK5 peak ([2]; FSBA 10 μM plus ATP 500 μM): 34,972 Da (100%) | ATP concentration at which most of the covalent modification of ALK5 by FSBA was inhibited ([2]; FSBA 10 μM, LC/MS): 0.5 mM | Mass Peak (relative percentage), unmodified ALK4 peak ([3]; FSBA 10 μM plus ATP 50 μM): 35,025 Da (5%) | Mass Peak (relative percentage), FSBA-modified ALK4 peak ([3]; FSBA 10 μM plus ATP 50 μM): 35,459 Da (95%), | Mass Peak (relative percentage), unmodified ALK4 peak ([3]; FSBA 10 μM plus ATP 100 μM): 35,025 Da (30%) | Mass Peak (relative percentage), FSBA-modified ALK4 peak ([3]; FSBA 10 μM plus ATP 100 μM): 35,459 Da (70%), | Mass Peak (relative percentage), unmodified ALK4 peak ([3]; FSBA 10 μM plus ATP 500 μM): 35,025 Da (100%) | ATP concentration at which most of the covalent modification of ALK4 by FSBA was inhibited ([3]; FSBA 10 μM, LC/MS): 0.5 mM | Mass Peak (relative percentage), unmodified CDK2 peak ([7]; FSBA 10 μM plus ATP 1 mM): 33,971 Da (20%) | Mass Peak (relative percentage), FSBA-modified CDK2 peak ([7]; FSBA 10 μM plus ATP 1 mM): 34,404 Da (80%), | Mass Peak (relative percentage), unmodified CDK2 peak ([7]; FSBA 10 μM plus ATP 5 mM): 33,971 Da (90%) | Mass Peak (relative percentage), FSBA-modified CDK2 peak ([7]; FSBA 10 μM plus ATP 5 mM): 34,404 Da (10%), | Mass Peak (relative percentage), unmodified CDK2 peak ([7]; FSBA 10 μM plus ATP 10 mM): 33,971 Da (100%) | ATP concentration necessary to block FSBA binding to CDK2 ([7]; FSBA 10 μM, LC/MS): 5 mM
SMILES: Nc1ncnc2c1ncn2[C@@H]1O[C@H](COP(=O)(O)OP(=O)(O)OP(=O)(O)O)[C@@H](O)[C@H]1O [ATP]
Effect of ATP on ^14C-FSBA labeling of ALK5 by autoradiography ([5]; 10 mM ATP): autoradiograph did not detect ^14C-FSBA binding
